From article PMC5542777 (Bioorganic & medicinal chemistry letters, 2017)

Legend:
[1] = Brain penetration in mice; assay type: in vivo; details: for brain permeability / brain penetration: 5 mg/kg IP; for Kp at 60 min: mouse, brain and plasma, ip
[2] = Oral pharmacokinetics in mice; assay type: in vivo; details: oral gavage 50 mg/kg

Clc1cc(Br)cc(CN[C@H]2CCCN(c3nc4nc(Cl)ccc4[nH]3)C2)c1 [Compound 5b]
brain permeability / brain penetration ([1]; mice): poor | brain levels ([1]; mice, 60 min after IP injection, 5 mg/kg): undetectable

CCOc1c(Br)cc(Br)cc1CN[C@H]1CCCN(c2nc3nc(Cl)ccc3[nH]2)C1 [Compound 5p]
Kp at 60 min ([1]; 5 mg/kg): 0.044 ± 0.006

CN(CCN[C@@H]1CCNc2c(Cl)cc(Cl)cc21)c1nc2nc(Cl)ccc2[nH]1 [Compound 13]
brain permeability / brain penetration ([1]; mice): moderately good brain penetration | Kp at 60 min ([1]; 5 mg/kg): 0.191 ± 0.075 | plasma exposure [2]: low plasma exposure
